# From US7932262B2 (Novartis AG, priority 2006, dated 2011)
# Test system: PC-3 cells
# Test: Cell Proliferation Assay (Cell Titer Glo), PC-3 cell line
# Format: cell-based
# Details: Homo sapiens, PC-3, Cell Proliferation Assay, PC3; read-out: CPEC50 PC3
# Method: IV. Cell Proliferation Assay Protocol:
# A2780, PC-3, or PC3MM cells were seeded at 1000 cells/well in 100 μL/well (10.000 cells/mL) growth media in 96-well plates. Cells were allowed to adhere to the bottom of plates for 3-5 hours in a 37° C. 5% CO2 incubator. Compounds were dissolved in DMSO and then transferred to the cell plates. The cells were incubated with the compounds for 3 days in a 37° C. 5% CO2 incubator. The growth medium containing the compounds was then removed from the cells and fresh medium was added, followed by 100 μL of Cell Titer Glo assay reagent (Promega). This mixture was shaken for 1 minute and then incubated without shaking for 10 minutes. Activity determinations for the compounds were made by detection on a Trilux Instrument.
# V. Cell Proliferation Assay Protocol: PC-3 Cell Line
# PC-3 cells were seeded at 1000 cells/well in 100 μL/well (10.000 cells/mL) along with growth media into black-walled, clear bottom 96-well plates. The cells were allowed to adhere to the bottom of the plate for 3-5 hours in a 37° C. 5% CO2 incubator.
# Test compounds were diluted to 500× in DMSO. The DMSO solutions of six of the compounds were transferred to the cells in the 96 well round bottom plate, column 2, row B-F. A 1:3 serial dilution of each compound was carried out. The serial dilution comprised adding 20 μL of DMSO to the wells containing the compounds and doing a 1:3 dilution across the plate from columns 2-10. Column 11 contained only DMSO. The serial dilution was carried out using a BioMek 2000 protocol “CP Serial Dilution using 250 μL tips” or “Proliferation Compound” (if using 20 μL tips).
# To a 96 deep well block, columns 2-11 rows B-F, was transferred 500 μL of growth medium. Using the FX protocol “HH_CellAssay—2 μL to 500 μL”, 2 μL of compound from each cell of the compound plate was transferred to the corresponding cell in the 96 deep well block containing 500 μL of growth medium. The instrument was programmed to dilute the compound in growth medium and then transfer 100 μL of that mixture to cell plates containing cells. The cell plates, to which test compounds had been added, were incubated for 3 days at 37° C. Following the incubation, the medium was removed and replaced with fresh medium. Cell Titer Glo (100 μL) was added to each well and the plate was shaken for 1 minute and then incubated without shaking for 10 minutes. The plates were then read using a Trilux instrument.
row,EC50,SMILES
1,5 to 10 µM,"CNc1ncc2ccc(OC3CCN(C(C)C)CC3)cc2n1 [Compound 322, 7-(1-isopropylpiperidin-4-yloxy)-N-methylquinazolin-2-amine]"
2,5 to 10 µM,"CNc1ncc2ccc(O)c(C3CCN(C(C)C)CC3)c2n1 [Compound 323, 8-(1-isopropylpiperidin-4-yl)-2-(methylamino)quinazolin-7-ol]"
3,< 5 µM,"CC(C)N1CCC(Oc2ccc3cnc(Nc4nc5ccccc5s4)nc3c2)CC1 [Compound 324, N-(7-(1-isopropylpiperidin-4-yloxy)quinazolin-2-yl)benzo[d]thiazol-2-amine]"
4,5 to 10 µM,"O=C(NC1CCNCC1)c1ccc(Nc2ncc3c(Br)ccc(OC4CCNCC4)c3n2)cc1 [Compound 370, 4-(5-bromo-8-(piperidin-4-yloxy)quinazolin-2-ylamino)-N-(piperidin-4-yl)benzamide]"
5,5 to 10 µM,"COc1cc(C(=O)NC2CCN(C)CC2)ccc1Nc1ncc2c(Br)ccc(OC3CCNCC3)c2n1 [Compound 371, 4-(5-bromo-8-(piperidin-4-yloxy)quinazolin-2-ylamino)-3-methoxy-N-(1-methylpiperidinyl)benzamide]"
6,< 5 µM,"Brc1ccc(OC2CCNCC2)c2nc(Nc3ccc(N4CCNCC4)cc3)ncc12 [Compound 372, 5-bromo-N-(4-(piperazin-1-yl)phenyl)-8-(piperidin-4-yloxy)quinazolin-2-amine]"
7,5 to 10 µM,"Cc1ccc(OC2CCNCC2)c2nc(Nc3ccc(N4CCNCC4)cc3)ncc12 [Compound 374, 5-methyl-N-(4-(piperazin-1-yl)phenyl)-8-(piperidin-4-yloxy)quinazolin-2-amine]"
8,5 to 10 µM,"Cc1ccc(OC2CCNCC2)c2nc(Nc3ccc(C(=O)NC4CCNCC4)cc3)ncc12 [Compound 376, 4-(5-methyl-8-(piperidin-4-yloxy)quinazolin-2-ylamino)-N-(piperidin-4-yl)benzamide]"
9,5 to 10 µM,"CC(C)N1CCC(Oc2cccc3cnc(NC(=O)c4ccccc4)nc23)CC1 [Compound 541, N-(8-(1-isopropylpiperidin-4-yloxy)quinazolin-2-yl)benzamide]"
10,5 to 10 µM,"CC(C)N1CCC(Oc2cccc3cnc(NS(=O)(=O)c4ccccc4)nc23)CC1 [Compound 542, N-(8-(1-isopropylpiperidin-4-yloxy)quinazolin-2-yl)benzenesulfonamide]"
11,5 to 10 µM,"CC(C)N1CCC(Nc2ncc3cccc(O)c3n2)CC1 [Compound 543, 2-(1-isopropylpiperidin-4-ylamino)quinazolin-8-ol]"
12,5 to 10 µM,"CC(=O)Nc1ncc2cccc(OC3CCN(C(C)C)CC3)c2n1 [Compound 544, N-(8-(1-isopropylpiperidin-4-yloxy)quinazolin-2-yl)acetamide]"
13,< 5 µM,"NS(=O)(=O)c1ccc(Nc2ncc3cc(C(=O)Nc4cccc(NC(=O)c5ccccc5)c4)ccc3n2)cc1 [Compound 578, N-(3-benzamidophenyl)-2-(4-sulfamoylphenylamino)quinazoline-6-carboxamide]"
14,< 5 µM,"CC(C)NC(=O)c1ccc(Nc2ncc3ccc(Oc4ccccc4)cc3n2)cc1 [Compound 591, N-isopropyl-4-(7-phenoxyquinazolin-2-ylamino)benzamide]"

# Same assay, conditions: Homo sapiens, PC-3, PC3 cells; read-out: CPEC50 PC3
row,EC50,SMILES
1,< 5 µM,"Nc1ncc(-c2ccc3cnc(Nc4ccc(S(N)(=O)=O)cc4)nc3c2OC2CCNCC2)cc1C(F)(F)F [Compound 933, 4-(7-(6-amino-5-(trifluoromethyl)pyridin-3-yl)-8-(piperidin-4-yloxy)quinazolin-2-ylamino)benzenesulfonamide]"
2,< 5 µM,"Nc1cc(C(F)(F)F)c(-c2ccc3cnc(Nc4ccc(S(N)(=O)=O)cc4)nc3c2OC2CCNCC2)cn1 [Compound 934, 4-(7-(6-amino-4-(trifluoromethyl)pyridin-3-yl)-8-(piperidin-4-yloxy)quinazolin-2-ylamino)benzenesulfonamide]"
3,< 5 µM,"COc1cc(Nc2ncc3ccc(OC4CCNCC4)cc3n2)cc(OC)c1 [Compound 957, N-(3,5-dimethoxyphenyl)-7-(piperidin-4-yloxy)quinazolin-2-amine]"

# Target: T1, PDK1 kinase (Homo sapiens, UniProt O15530)
# T1 sequence (O15530 1-556): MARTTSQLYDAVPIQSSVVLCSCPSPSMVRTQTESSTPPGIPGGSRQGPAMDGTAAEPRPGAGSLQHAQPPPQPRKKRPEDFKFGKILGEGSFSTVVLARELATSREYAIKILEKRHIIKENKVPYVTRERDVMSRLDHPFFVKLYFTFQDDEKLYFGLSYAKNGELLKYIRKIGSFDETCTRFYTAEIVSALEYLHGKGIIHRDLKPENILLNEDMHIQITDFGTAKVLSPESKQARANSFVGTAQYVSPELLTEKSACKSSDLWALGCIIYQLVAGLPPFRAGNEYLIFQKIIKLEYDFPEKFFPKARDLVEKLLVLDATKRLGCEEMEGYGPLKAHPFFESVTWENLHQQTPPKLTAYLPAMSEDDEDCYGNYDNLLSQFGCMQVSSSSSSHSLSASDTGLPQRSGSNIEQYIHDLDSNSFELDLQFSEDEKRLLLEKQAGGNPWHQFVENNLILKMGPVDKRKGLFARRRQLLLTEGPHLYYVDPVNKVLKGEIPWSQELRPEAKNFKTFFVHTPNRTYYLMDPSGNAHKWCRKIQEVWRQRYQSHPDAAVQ
# Test: PDK1 Kinase Alpha Screen Assay
# Format: biochemical
# Details: PDK1 Kinase Alpha Screen Assay; read-out: PDK1 IC50
# Method: 1. PDK1 Kinase Alpha Screen Assay
# Reagents/Concentrations: The PDK1-4 peptide substrate, biotin-[…]-NH2, was purchased from the Tufts University Core Facility. The final concentration of PDK1-4 peptide substrate was 50 nM The ATP substrate (Adenosine-5′-triphosphate) was purchased from Roche Diagnostics. The final concentration of ATP substrate was 10 uM. Phospho-(Ser/Thr) PKA substrate antibody was purchased from Cell Signaling Technology. The final concentration of antibody was 0.3 mg/ml. The Alpha Screen Protein A detection kit containing donor and acceptor beads was purchased from PerkinElmer Life Sciences. The final concentration of both donor and acceptor beads was 25 μg/ml. Alpha Screen was used for detection. The biotinylated-PDK1-4 peptide was phosphorylated by PDK1 kinase using the ATP substrate. The biotinylated-PDK1-4 peptide substrate was bound to the streptavidin coated donor bead. The antibody was bound to the protein A coated acceptor bead. The antibody bound to the phosphorylated form of the biotinylated PDK-1 peptide substrate, bringing the donor and acceptor beads into close proximity. Laser irradiation of the donor bead at 680 nm generated a flow of short-lived singlet oxygen molecules. When the donor and acceptor beads were in close proximity, the reactive oxygen generated by the irradiation of the donor beads initiated a luminescence/fluorescence cascade in the acceptor beads. This process led to a highly amplified signal with output in the 530-620 nm range. Assays were carried out in 50 mM Tris, pH=7.5, 10 mM MgCl2, 0.1% Bovine Serum Albumin, 0.01% Tween-20, 2 mM Dithiolthreitol, 2.5% Dimethyl Sulfoxide. Reactions were stopped by adding 50 mM Tris, pH=7.5, 90 mM EDTA, 0.1% Bovine Serum Albumin, 0.01% Tween-20.
# Procedure: To 10 μl of PDK1-4 peptide, 0.5 μl of test compound in dimethyl sulfoxide is added. PDK1 kinase and ATP are mixed. 10 μl of the PDK1 kinase/ATP mix is added to start the reaction. The reaction is allowed to proceed for 3-18 hours. The reactions are stopped by adding 10 μl of the EDTA-containing stop buffer. Beads are mixed with antibody. 25 μl of the bead/antibody mix is added to the stopped reactions. Plates are incubated at room temperature overnight to allow for detection development before being read. The assay is run is a 384-well format. […]
row,IC50,SMILES
1,< 5 µM,"COc1ccccc1Oc1cccc2cnc(Nc3ccc(S(N)(=O)=O)cc3)nc12 [Compound 408, 4-(8-(2-methoxyphenoxy)quinazolin-2-ylamino)benzenesulfonamide]"
2,< 5 µM,"NC(=O)c1cccc(Oc2cccc3cnc(Nc4ccc(S(N)(=O)=O)cc4)nc23)c1 [Compound 411, 3-(2-(4-sulfamoylphenylamino)quinazolin-8-yloxy)benzamide]"
3,< 5 µM,"NS(=O)(=O)c1ccc(Nc2ncc3cccc(Oc4ccnc(F)c4)c3n2)cc1 [Compound 412, 4-(8-(2-fluoropyridin-4-yloxy)quinazolin-2-ylamino)benzenesulfonamide]"
4,< 5 µM,"NS(=O)(=O)c1ccc(Nc2ncc3ccc(Oc4ccnc(F)c4)cc3n2)cc1 [Compound 416, 4-(7-(2-fluoropyridin-4-yloxy)quinazolin-2-ylamino)benzenesulfonamide]"

# Same assay, conditions: read-out: PDK1 IC50
row,IC50,SMILES
1,5 to 10 µM,"CCCCNS(=O)(=O)c1cccc(Nc2ncc3cccc(-c4cccc(NC(C)=O)c4)c3n2)c1 [Compound 87, N-{3-[2-(3-Butylsulfamoyl-phenylamino)-quinazolin-8-yl]-phenyl}-acetamide]"
2,< 5 µM,"NC(=O)c1ccccc1-c1ccc2cnc(Nc3ccc(S(N)(=O)=O)cc3)nc2c1 [Compound 125, 2-[2-(4-Sulfamoyl-phenylamino)-quinazolin-7-yl]-benzamide]"
3,5 to 10 µM,"CC(=O)Nc1cccc(-c2ccc3cnc(Nc4ccc(S(N)(=O)=O)cc4)nc3c2)c1 [Compound 126, N-{3-[2-(4-Sulfamoyl-phenylamino)-quinazolin-7-yl]-phenyl}-acetamide]"
4,< 5 µM,"CS(=O)(=O)c1cccc(-c2ccc3cnc(Nc4ccc(S(N)(=O)=O)cc4)nc3c2)c1 [Compound 128, 4-[7-(3-Methanesulfonyl-phenyl)-quinazolin-2-ylamino]-benzenesulfonamlde]"
5,10 to 25 µM,"CS(=O)(=O)Nc1cccc(-c2ccc3cnc(Nc4ccc(S(N)(=O)=O)cc4)nc3c2)c1 [Compound 129, 4-[7-(3-Methanesulfonylamino-phenyl)-quinazolin-2-ylamino]-benzenesulfonamide]"
